Values quoted from earlier work, collected in patent publication US10006071B2, “Methods to control secretion of metabolic byproducts in algae to enhance recovery of said byproducts” (Institute for Systems Biology, priority 2010, dated 2018).
Like-named read-outs stand apart in the source and are kept apart here. Residues, ends and D or L forms follow the SMILES beside them. *: point of attachment. Cbz = O=C(OCc1ccccc1)*; CH2F = FC*

Experiments:
[1] = test system: apoptosis
[2] = test system: Caspase-6
[3] = test system: caspase-3
[4] = test system: Caspase-1
[5] = test system: Caspase-8
[6] = test system: Caspase-9
[7] = test system: Metacaspase
[8] = test system: metacaspase

SMILES	inhibition of caspase-6 [2]	inhibition of caspase-3 [3]	inhibition of caspase-1 [4]	inhibition of caspase-8 [5]	inhibition of caspase-9 [6]	effect on apoptosis [1]	inhibition of metacaspase [7]	other results
O=C(O)CN(CCN(CC(=O)O)CC(=O)O)CCN(CC(=O)O)CC(=O)O [DTPA, diethylene triamine pentaacetic acid]						permits apoptosis to occur		
c1ccc(CN(CCN(Cc2ccccn2)Cc2ccccn2)Cc2ccccn2)nc1 [TPEN, N,N,N′,N′-tetrakis(2-pyridylmethyl)ethylenediamine]						permits apoptosis to occur		
CC(=O)N[C@@H](CC(=O)O)C(=O)N[C@@H](CCC(=O)O)C(=O)N[C@H](C(=O)N[C@H](C=O)CC(=O)O)C(C)C [AcDEVD-CHO]							inhibited	inhibition of caspase-3 ([3]; Chlorella saccharophila): inhibit
COC(=O)C[C@H](NC(=O)[C@H](C)NC(=O)[C@@H](NC(=O)OCc1ccccc1)C(C)C)C(=O)CF [zVAD-fmk] (Cbz-Val-Ala-Asp(OMe)-CH2F)							inhibited	
COC(=O)CC[C@H](NC(=O)[C@H](CC(=O)OC)NC(=O)OCc1ccccc1)C(=O)N[C@H](C(=O)N[C@@H](CC(=O)OC)C(=O)CF)C(C)C [Z-DEVD-FMK]							inhibited	inhibition of metacaspase [8]: inhibits

Now from value to compound, other results behind:

inhibition of caspase-6 [2]	inhibition of caspase-3 [3]	inhibition of caspase-1 [4]	inhibition of caspase-8 [5]	inhibition of caspase-9 [6]	SMILES	effect on apoptosis [1]	inhibition of metacaspase [7]	other results
inhibited	inhibit	inhibited	inhibited	inhibited	CC(=O)N[C@@H](Cc1ccc(O)cc1)C(=O)N[C@@H](CCC(=O)O)C(=O)N[C@H](C(=O)N[C@@H](CC(=O)O)C(=O)CCl)C(C)C [Ac-YEVD-CMK] (HELM PEPTIDE1{[ac].Y.E.V.D.[ClC[*:1]]}$$$$V2.0)			
	potent inhibitor				[Zn+2] [Zn^+2]	inhibit apoptosis		
inhibited	inhibit	inhibited	inhibited	inhibited	COC(=O)CC(NC(=O)OC(C)(C)C)C(=O)CF [Boc D-FMK]			
inhibited	inhibit	inhibited	inhibited	inhibited	CC(=O)N[C@H](C(=O)N[C@@H](C)C(=O)N[C@@H](CC(=O)O)C(=O)CF)C(C)C [Ac-VAD-FMK] (HELM PEPTIDE1{[ac].V.A.D.[FC[*:1]]}$$$$V2.0)			
